The source of these data is patent US4086417A, “Cytidine nucleotide derivatives” (Asahi Kasei Kogyo Kabushiki Kaisha, priority 1974, dated 1978).

Converted amounts (≈) assume the structure as drawn. Where a name gives a salt, the structure may show the parent alone. Read-outs that look alike come from different tables or passages of the source.

Series [1] is described as follows: Solubility test: solubility in water. The class given is physicochemical. An excerpt:
In the aforesaid examples, the products were obtained as white solids.
In Table 1, -Ara-C means "-1-β-D-arabinofuranosylcytosine" and -5'-Pna and -5'-PNa2 mean "-1-β-D-arabinofuranosylcytosine-5'-phosphate monosodium salt" and "-1-β-D-arabinofuranosylcytosine-5'-phosphate disodium salt," respectively.

The next series has as its system leukemia L-1210. Kind of series: Antitumour activity in mice inoculated intraperitoneally with leukemia L-1210 (survival, T/C). The class given is in vivo, CDF-1 male mice. The following applies: for response vs control in vivo at 100 mg/kg / response vs control in vivo at 200 mg/kg / response vs control in vivo at 400 mg/kg: Mus musculus, L1210, ip, directly after injection of L-1210, after 2 days and after 6 days; for response vs control in vivo at 100 mg/kg: 100 mg/kg i.p.; for response vs control in vivo at 200 mg/kg: 200 mg/kg i.p.; for response vs control in vivo at 400 mg/kg: 400 mg/kg i.p. The method, then: The antitumour activity for mice of the test material was evaluated by means of survival rate comparison, T/C (%), that is, 100 times the mean survival period of the groups injected with the test material divided by the mean survival period of the comparison groups which were not injected with the test material.
Further, for comparison, the following materials were also subjected to the same biological test: […]

Take `O=C(Nc1ccn([C@@H]2O[C@H](COP(=O)(O)O)[C@@H](O)[C@@H]2O)c(=O)n1)C12CC3CC(CC(C3)C1)C2` [N^4 -Adamantoyl-5'-PNa2]: the Solubility in water in series [1] was greater than 10000 µg/mL.

Take `O=C(Nc1ccn([C@@H]2O[C@H](COP(=O)(O)O)[C@@H](O)[C@@H]2O)c(=O)n1)C12CC3CC(CC(C3)C1)C2` [N^4 -Adamantoyl-5'-PNa, N^4-adamantoyl-1-β-D-arabinofuranosylcytosine-5'-phosphate monosodium]: the Solubility in water in series [1] is 2000 µg/mL.

Take `O=C(Nc1ccn([C@@H]2O[C@H](CO)[C@@H](O)[C@@H]2O)c(=O)n1)C12CC3CC(CC(C3)C1)C2` [N^4 -Adamantoyl-Ara-C]: the concentration in solution in series [1] (solubility) came to 10 µg/mL (≈ 0.0247 mM).

In series [1], `CCCCCCCCCCCCCCCCC(=O)Nc1ccn([C@@H]2O[C@H](COP(=O)(O)O)[C@@H](O)[C@@H]2O)c(=O)n1` [N^4 -Margaroyl-5'-PNa2] had a Solubility in water greater than 50000 µg/mL.

In the case of `CCCCCCCCCCCCCCCCC(=O)Nc1ccn([C@@H]2O[C@H](COP(=O)(O)O)[C@@H](O)[C@@H]2O)c(=O)n1` [N^4 -Margaroyl-5'-PNa, N^4-margaroyl-1-β-D-arabinofuranosylcytosine-5'-phosphate monosodium], in series [1], the Solubility in water is greater than 10000 µg/mL. Besides, in the series with leukemia L-1210, the response vs control in vivo at 100 mg/kg was greater than 395%, the response vs control in vivo at 200 mg/kg was greater than 382% and the response vs control in vivo at 400 mg/kg was found to be 101%.

In series [1], `CCCCCCCCCCCCCCCCCCCCCCCCCCCC(=O)Nc1ccn([C@@H]2O[C@H](COP(=O)(O)O)[C@@H](O)[C@@H]2O)c(=O)n1` [N^4 -Montanoyl-5'-PNa2] gave a Solubility in water greater than 5000 µg/mL.

Consider `CCCCCCCCCCCCCCCCCCCCCCCCCCCC(=O)Nc1ccn([C@@H]2O[C@H](COP(=O)(O)O)[C@@H](O)[C@@H]2O)c(=O)n1` [N^4 -Montanoyl-5'-PNa, N^4-montanoyl-1-β-D-arabinofuranosylcytosine-5'-phosphate monosodium], for which the Solubility in water in series [1] is 1000 µg/mL.

The compound `CCCCCCCCCCCCCCCCCCCCCCCCCCCC(=O)Nc1ccn([C@@H]2O[C@H](CO)[C@@H](O)[C@@H]2O)c(=O)n1` [N^4 -Montanoyl-Ara-C] displayed a solubility in series [1] of less than 10 µg/mL.

Regarding `CCCCCCCCCCCCCCCCCCC(=O)Nc1ccn([C@@H]2O[C@H](COP(=O)(O)O)[C@@H](O)[C@@H]2O)c(=O)n1` [N^4 -Nonadecanoyl-5'-PNa, N^4-nonadecanoyl-1-β-D-arabinofuranosylcytosine-5'-phosphate monosodium], in the series with leukemia L-1210, the response vs control in vivo at 100 mg/kg was 385%, the response vs control in vivo at 200 mg/kg worked out at 232% and the response vs control in vivo at 400 mg/kg was determined as 102%.

On to `CCCCCCCCCCCCCCCCCCC(=O)Nc1ccn([C@@H]2O[C@H](CO)[C@@H](O)[C@@H]2O)c(=O)n1` [N^4 -Nonadecanoyl-Ara-C], for which, in the series on leukemia L-1210, the response vs control in vivo at 100 mg/kg amounted to 382%, the response vs control in vivo at 200 mg/kg amounted to 216% and the response vs control in vivo at 400 mg/kg came out at 134%.

On to `CCCCCCCC/C=C\CCCCCCCC(=O)Nc1ccn([C@@H]2O[C@H](COP(=O)(O)O)[C@@H](O)[C@@H]2O)c(=O)n1` [N^4 -Oleoyl-5'-PNa2], for which, in series [1], the Solubility in water is greater than 250000 µg/mL.

As to `CCCCCCCCCCCCCCCC(=O)Nc1ccn([C@@H]2O[C@H](COP(=O)(O)O)[C@@H](O)[C@@H]2O)c(=O)n1` [N^4 -Palmitoyl-5'-PNa2], the Solubility in water in series [1] was greater than 150000 µg/mL.

In the series on leukemia L-1210, `CCCCCCCCCCCCCCC(=O)Nc1ccn([C@@H]2O[C@H](COP(=O)(O)O)[C@@H](O)[C@@H]2O)c(=O)n1` [N^4 -Pentadecanoyl-5'-PNa] registered a response vs control in vivo at 100 mg/kg greater than 302%, a response vs control in vivo at 200 mg/kg greater than 287% and a response vs control in vivo at 400 mg/kg of 86%.

In the case of `CCCCCCCCCCCCCCC(=O)Nc1ccn([C@@H]2O[C@H](CO)[C@@H](O)[C@@H]2O)c(=O)n1` [N^4 -Pentadecanoyl-Ara-C], in the series with leukemia L-1210, the response vs control in vivo at 100 mg/kg turned out to be 302%, the response vs control in vivo at 200 mg/kg was 287% and the response vs control in vivo at 400 mg/kg is 91%.

For `CCC(=O)Nc1ccn([C@@H]2O[C@H](COP(=O)(O)O)[C@@H](O)[C@@H]2O)c(=O)n1` [N^4 -Propionyl-5'-PNa], in the series on leukemia L-1210, the response vs control in vivo at 100 mg/kg turned out to be 99%, the response vs control in vivo at 200 mg/kg was found to be 100% and the response vs control in vivo at 400 mg/kg was 101%.

As to `CCC(=O)Nc1ccn([C@@H]2O[C@H](CO)[C@@H](O)[C@@H]2O)c(=O)n1` [N^4 -Propionyl-Ara-C], in the series with leukemia L-1210, the response vs control in vivo at 100 mg/kg stood at 131%, the response vs control in vivo at 200 mg/kg worked out at 131% and the response vs control in vivo at 400 mg/kg is 135%.

Turning to `CCCCCCCCCCCCCCCCCC(=O)Nc1ccn([C@@H]2O[C@H](COP(=O)(O)O)[C@@H](O)[C@@H]2O)c(=O)n1` [N^4 -Stearoyl-5'-PNa2, N^4-stearoyl-1-β-D-arabinofuranosylcytosine-5'-phosphate disodium salt], the Solubility in water in series [1] (disodium salt) was greater than 50000 µg/mL.

In the series with leukemia L-1210, `CCCCC(=O)Nc1ccn([C@@H]2O[C@H](COP(=O)(O)O)[C@@H](O)[C@@H]2O)c(=O)n1` [N^4 -Valeryl-5'-PNa] yielded a response vs control in vivo at 100 mg/kg of 101%, a response vs control in vivo at 200 mg/kg of 99% and a response vs control in vivo at 400 mg/kg of 101%.

In the series on leukemia L-1210, `CCCCC(=O)Nc1ccn([C@@H]2O[C@H](CO)[C@@H](O)[C@@H]2O)c(=O)n1` [N^4 -Valeryl-Ara-C] displayed a response vs control in vivo at 100 mg/kg of 133%, a response vs control in vivo at 200 mg/kg of 171% and a response vs control in vivo at 400 mg/kg of 191%.

For `CCCCCCCCCCCCCCCCCC(=O)Nc1ccn([C@@H]2O[C@H](COP(=O)(O)O)[C@@H](O)[C@@H]2O)c(=O)n1` [N^4-stearoyl-1-β-D-arabinofuranosylcytosine-5'-phosphate], the “Antileukemial effect on mice (in words)” value with leukemia L-1210 (L-1210 in mice, conclusions in words) is given as “had the highest antileukemial effect on mice”.

In the series with leukemia L-1210, `CCCCCCCCCCCCCCCCCC(=O)Nc1ccn([C@@H]2O[C@H](CO)[C@@H](OP(=O)(O)O)[C@@H]2OP(=O)(O)O)c(=O)n1` [N^4-stearoyl-Ara-C-2',3'-(PNa)2] showed a response vs control in vivo at 100 mg/kg of 184%, a response vs control in vivo at 200 mg/kg of 119% and a response vs control in vivo at 400 mg/kg of 103%.

Regarding `CCCCCCCCCCCCCCCCCC(=O)Nc1ccn([C@@H]2O[C@H](CO)[C@@H](O)[C@@H]2OP(=O)(O)O)c(=O)n1` [N^4-stearoyl-Ara-C-2'-PNa, N^4-stearoyl-1-β-D-arabinofuranosylcytosine-2'-phosphate monosodium salt], in the series with leukemia L-1210, the response vs control in vivo at 100 mg/kg stood at 228%, the response vs control in vivo at 200 mg/kg stood at 146% and the response vs control in vivo at 400 mg/kg stood at 121%.

Regarding `CCCCCCCCCCCCCCCCCC(=O)Nc1ccn([C@@H]2O[C@H](COP(=O)(O)O)[C@@H](OP(=O)(O)O)[C@@H]2O)c(=O)n1` [N^4-stearoyl-Ara-C-3',5'-(PNa)2], in the series with leukemia L-1210, the response vs control in vivo at 100 mg/kg came out at 215%, the response vs control in vivo at 200 mg/kg was found to be 138% and the response vs control in vivo at 400 mg/kg was 107%.

In the series with leukemia L-1210, `CCCCCCCCCCCCCCCCCC(=O)Nc1ccn([C@@H]2O[C@H](CO)[C@@H](OP(=O)(O)O)[C@@H]2O)c(=O)n1` [N^4-stearoyl-Ara-C-3'-PNa] registered a response vs control in vivo at 100 mg/kg of 286%, a response vs control in vivo at 200 mg/kg of 219% and a response vs control in vivo at 400 mg/kg of 112%.
